Assay results reported in EPA's ToxValDB 9.5 (doi:10.2903/j.efsa.2008.139r).

Key:
[1] = tested on: Rattus norvegicus
[2] = tested on: Oncorhynchus mykiss; details: chronic/long-term
[3] = tested on: Lepomis macrochirus; details: acute; mortality
[4] = tested on: Apis mellifera; details: acute, mortality
[5] = tested on: Canidae; details: oral, Dog Other, organ weight
[6] = tested on: Daphnia magna; details: chronic/long-term
[7] = tested on: Perdix sp.; details: acute; oral; unspecified; mortality
[8] = tested on: Tagia sp.; details: acute; duration: 14 days; mortality
[9] = tested on: Oryctolagus sp.; details: developmental; development
[10] = tested on: Colinus virginianus
[11] = tested on: Typhlodromus pyri; test: LR50; higher = less toxic; details: not reported; mortality

SMILES: CCO/N=C(\CC)C1=C(O)CC(c2c(C)cc(C)cc2C)CC1=O (stereo unspecified) [Tralkoxydim]
- LD50 ([1]; acute, oral, mortality): 934 mg/kg-day
- NOAEL ([1]; developmental, development): 1 mg/kg-day
- NOAEL ([1]; reproduction developmental, body weight): 18.2 mg/kg-day
- NOEC [2]: 4.6 mg/L
- LC50 [3]: > 6.1 µg/mL
- LD50 ([4]; dermal): > 100 µg/piece
- LD50 ([4]; oral, unspecified): > 117 µg/piece
- NOAEL ([5]; chronic, duration: 1 years): 0.5 mg/kg-day
- NOAEL ([5]; subchronic, duration: 90 days): 0.5 mg/kg-day
- NOEC [6]: 2.1 mg/L
- LD50 [7]: 2020 mg/kg-day
- LC50 [8]: > 1000 mg/kg
- NOEC [9]: 20 mg/kg-day
- LC50 ([10]; acute, oral, diet, mortality): 1020 mg/kg-day
- NOEC ([10]; reproduction developmental): 14.3 mg/kg-day
- LR50 [11]: > 450 g/ha
